According to US20180353512A1, “COMBINATION THERAPIES FOR TREATING B-CELL MALIGNANCIES” (GILEAD SCIENCES, INC., priority 2015, published 2018):
Where two headings read alike, the source gives them in different places.

Legend:
Format in all cases: cell-based
Pfeiffer cells = experiment: CellTiter-Glo cell viability assay, four days (Example 1A); conditions: for EC50: Homo sapiens
Experimental: (§1) In vitro anti-proliferative activity of agents was assessed using CellTiter-Glo™ Assay (Promega), which quantifies cellular ATP level. Test compounds were dissolved in DMSO to prepare 10 mM stock solutions. […] For drug combination studies, a two or three fold horizontal serial dilution pattern was used for Compound B and combined with Idelalisib using a two, three, or four fold vertical serial dilution pattern. […] The final DMSO concentration in the test media was 0.2%. Each combination used replicates of four plates to generate sufficient data for evaluation of synergy scores. […] The assay growth medium for all lines was RPMI supplemented with 20% FBS and […] penicillin-streptomycin. Seeding density was optimized for growth rate over 96 hours for each cell line and was between 10,000-30,000 cells per well of 96 well plates. After four days incubation with agents at 37° C./5% CO2, the CellTiter-Glo™ assay was performed following the manufacturer's protocol. Relative luminescence units were quantified using a Biotek Synergy luminometer.
(§2) Data from a plate was excluded if either Z′<0.5 or the growth of the cell lines was less than one doubling in the four day assay period. Z′ was calculated using the formula: Z′=[1−((3(σstau+σDMSO))/(|μDMSO−μstau|)] where σstau and σDMSO are the standard deviation of the 100% inhibited staurosporine and 0% inhibited DMSO control wells, respectively. μDMSO and μstau are the mean of the […] control wells, respectively. The raw Cell Titer Glo signal was normalized according to the following formula: [(raw value)−(100% inhibited staurosporine control)]/[(DMSO control value)−(100% inhibited staurosporine control)].
(§3) EC50 was determined using GraphPad Prism or Dose Response software by fitting the data to a four parameters variable slope model. […] For combination studies, the EC50 at each test article concentration was determined from graphs of the EC50 of one compound at a fixed dose of second compound. The EC50 shift was calculated by taking the ratio of the EC50 of the single agent by the EC50 at the maximum dose of the second agent.
(§4) Synergy was analyzed using the MacSynergy II program, which calculates a theoretical additive value for the drug combination that is based on the values generated by each drug alone using the Bliss Independence mathematical model. The Bliss independence model assumes that each drug acts independently. The theoretical additive effect for each compound is calculated and then subtracted from the actual effect. Synergy is defined by greater than expected effects while antagonism is defined by less than expected effects. In this example, a synergy volume greater than 50 was considered significant. The EC50 values determined in drug combination studies represent a single experiment run in quadruplicate and therefore may differ slightly from the single agent EC50 values.

TMD-8 cells [1] = experiment: as above; conditions: for EC50: Homo sapiens; for growth of cell line: single agent
Experimental: as §1, §2, §3, §4

OCI-LY10 cells = experiment: Apoptosis assay, Annexin V flow cytometry; conditions: 48 h, Idelalisib = 156 nM, Compound B = 8 nM, DMSO 29
Experimental: (§5) Apoptosis of Idelalisib in combination with Compound B in two DLBCL cell lines, OCI-Ly10 and TMD-8, was also measured. Cells plated at 0.2×10^6 cells/mL in RPMI 1640 supplemented with 20% […] and 1% penicillin and streptomycin. Cells were treated with compound, 156 nM Idelalisib, Compound B and the combination thereof. Control received DMSO at 0.2%. Cells were then incubated at 37 C for 48 hours. Apoptosis was measured using Annexin V/FITC kit, and analyzed by flow cytometry. Apoptosis was also measured using or Annexin V/7ADD kit (Beckman Coulter). Fluorescence was measured by flow cytometry using BD LSRII and the results were analyzed using FACSDiva.

TMD-8 cells [2] = experiment: Apoptosis assay, Annexin V flow cytometry; conditions: 48 h, Idelalisib = 156 nM, Compound B = 8 nM, DMSO 21
Experimental: as §5

pIκBa S32 = experiment: Peggy Sue analysis of TMD-8 Ibrutinib resistant lines; conditions: idelalisib 420 nM, Compound B 320 nM
Experimental: Lysates were also analyzed by Simple Western using Peggy Sue (ProteinSimple). A standard curve using recombinant proteins was generated to measure PI3K isoform levels on Peggy Sue; data was processed using Compass software (ProteinSimple).
Total protein expression levels and phosphorylation of PI3K, MAPK, BTK and NF-κB components were determined by Western Blot or Peggy Sue. Cells were treated with idelalisib (420 nM), Compound B (320 nM) or in combination. Protein expression level and phosphoproteomics were determined using Western Blot (p-ERK 1/2, p-AKT S473, total AKT) and Peggy Sue (p-BTK, p-IκBα S32, total IκBα), using procedures as described in Example 3B. Results were quantitated after determining the AUC for each group and normalized to DMSO vehicle control.

[3] = test system: TMD8^S (DMSO passage matched, idelalisib-sensitive line); experiment: CellTiter-Glo viability assay at 96 h; conditions: for cell growth: FIG. 23A
Experimental: Growth inhibition to Idelalisib or other inhibitors was assessed using CellTiter-Glo viability assay at 96 h. […] Cell lines were analyzed by whole exome sequencing, RNASeq, and phosphoproteomics. Protein expression was measured using Simple Western and SDS/PAGE and western blot. Caspase 3/7 was measured using Caspase-Glo 3/7 assay; apoptosis was measured with Annexin V assay and propidium iodide by flow cytometry.
Cell viability EC50 was determined using a sigmoidal dose-response (variable slope) curve generated from quadruplicate samples. Statistical significance was determined using the student's t-test for cell viability and two-tailed paired t-test for apoptosis experiments in Prism (GraphPad).
Idelalisib-resistant (TMD8^R) cell line and passage-matched Idelalisib-sensitive (TMD8^S) cell line were generated according to the procedure described in Example 5 above. To characterize the resistant cells, cell viability assays, RNASeq of multidrug resistance (MDR) family of ABC transporter genes (N=33), apoptosis assays, and phosphoprotein analysis were performed. Cell viability was measured using CellTiter-Glo, as described in Example 1A above. Western blot and protein level analysis were performed after treatment with 420 nM idelalisib, 320 nM Compound B and combination thereof, using Peggy Sue (ProteinSimple) automated Western Blot system. Protein concentration (pg/μL) was quantitated using recombinant protein standards. Normalized AUC were determined for each of the treatment groups, normalized to actin. Apoptosis was assessed by propidium iodide and Annexin V/FITC staining and measured by flow cytometry, as described in Example 1A above. Western Blot with anti-p-AKT (S473) antibody and Peggy Sue were used to determine the phosphorylation state of downstream signaling components.

[4] = TMD8, TMD-8, bound stated for three ABC-DLBCL cell lines, read-out: EC50, growth inhibition, single agent
[5] = A20-Q143* line, normalized to DMSO control, DMSO 1.39
[6] = control line, normalized to DMSO vehicle control

With CC#CC(=O)N1CC[C@@H](n2c(=O)n(-c3ccc(Oc4ccccc4)cc3)c3c(N)ncnc32)C1 [Compound B, 6-amino-9-[(3R)-1-(2-butynoyl)-3-pyrrolidinyl]-7-(4-phenoxyphenyl)-7,9-dihydro-8H-purin-8-one] the EC50 (Pfeiffer cells; Idelalisib 0 nM, read-out: EC50 of Compound B in Combination with Idelalisib) was greater than 10 µM, the “Compound B EC50 shift (fold)” value (Pfeiffer cells; No EC50 shift observed at up to 2.5 μM) was “None^c” and the EC50 (TMD-8 cells [1]; TMD8, TMD-8, Idelalisib 0 nM, read-out: EC50 of Compound B in Combination with Idelalisib) was 0.011 µM. It also gave an EC50 (TMD-8 cells [1]; TMD8, TMD-8, Idelalisib 156 nM, read-out: EC50 of Compound B in Combination with Idelalisib) of 0.005 µM, an EC50 (TMD-8 cells [1]; TMD8, TMD-8, Idelalisib 625 nM, read-out: EC50 of Compound B in Combination with Idelalisib) of 0.004 µM and an EC50 (TMD-8 cells [1]; [4]) of less than 0.026 µM. For the same molecule, the “growth of cell line” value (TMD-8 cells [1]; TMD-8) was “inhibited the growth”, the “Compound B EC50 shift (fold)” value (TMD-8 cells [1]; TMD-8, single agent EC50 / EC50 at maximum dose of Idelalisib) was 2.75 fold and the “% Annexin V+” value (OCI-LY10 cells) was 26%. The “% Annexin V+” value (TMD-8 cells [2]) was 44%, the “pIκBa S32” value (pIκBa S32; [5]) was 1.12 and the “pIκBa S32” value (pIκBa S32; [6]) was 0.62. The “cell growth” value [3] was “inhibited cell growth” and the EC50 ([3]; unit inferred, read-out: EC50, cell viability) was 0.0012 µM.
CCC(Nc1ncnc2[nH]cnc12)c1nc2cccc(F)c2c(=O)n1-c1ccccc1 (stereo not shown) [Idelalisib, 2-(1-((9H-Purin-6-yl)amino)propyl)-5-fluoro-3-phenylquinazolin-4(3H)-one] was tested, and the EC50 (Pfeiffer cells; Compound B 45 nM, read-out: EC50 of Idelalisib when Combined with Compound B) was 0.174 µM, the “Idelalisib EC50 shift (fold)” value (Pfeiffer cells; single agent EC50 / EC50 at maximum dose of Compound B) was 1 fold and the EC50 (TMD-8 cells [1]; TMD8, TMD8, addition of Compound B at 6 nM, read-out: EC50 of idelalisib) was 0.108 µM. The EC50 (TMD-8 cells [1]; TMD8, TMD8, addition of Compound B at 12 nM, read-out: EC50 of idelalisib) was 0.034 µM, the EC50 (TMD-8 cells [1]; TMD8, TMD8, addition of Compound B at 25 nM, read-out: EC50 of idelalisib) was 0.024 µM and the EC50 (TMD-8 cells [1]; TMD8, TMD8, without Compound B, read-out: EC50 of idelalisib) was 0.254 µM. The EC50 (TMD-8 cells [1]; TMD8, TMD-8, Compound B 0 nM, read-out: EC50 of Idelalisib when Combined with Compound B) was 0.254 µM, the EC50 (TMD-8 cells [1]; TMD8, TMD-8, Compound B 5 nM, read-out: EC50 of Idelalisib when Combined with Compound B) was 0.13 µM and the EC50 (TMD-8 cells [1]; TMD8, TMD-8, Compound B 15 nM, read-out: EC50 of Idelalisib when Combined with Compound B) was 0.032 µM. The EC50 (TMD-8 cells [1]; TMD8, TMD-8, Compound B 45 nM, read-out: EC50 of Idelalisib when Combined with Compound B) was 0.024 µM, the EC50 (TMD-8 cells [1]; [4]) was less than 0.21 µM and the “growth of cell line” value (TMD-8 cells [1]; TMD-8) was “inhibited the growth”. The “Idelalisib EC50 shift (fold)” value (TMD-8 cells [1]; TMD-8, single agent EC50 / EC50 at maximum dose of Compound B) was 10.6 fold, the “% Annexin V+” value (OCI-LY10 cells) was 25% and the “% Annexin V+” value (TMD-8 cells [2]) was 45%. The “pIκBa S32” value (pIκBa S32; [5]) was 0.92, the “pIκBa S32” value (pIκBa S32; [6]) was 1.09 and the EC50 ([3]; Example 7, read-out: EC50, cell viability) was 0.22 µM. The “cell growth” value [3] was “inhibited cell growth” and the inhibition at 1 µM ([3]; at 1 μM, read-out: Growth inhibition) was 92%.
